Source: US20080287469A1, “Phosphoinositide 3-Kinase Inhibitors for Inhibiting Leukocyte Accumulation” (priority 2005, published 2008)

Columns and labels:
P70S6K = P70S6K (Homo sapiens, UniProt P23443); test: Protein kinase/phosphatase panel: P70S6K; format: biochemical; settings: inhibitor 10 μM; 100 μM ATP
[1] = target: Insulin receptor tyrosine kinase (Homo sapiens, UniProt P06213); test: Protein kinase/phosphatase panel: insulin receptor tyrosine kinase; format: biochemical; settings: inhibitor 10 μM; 100 μM ATP
neutrophils = test: Neutrophil chemotaxis across bare filter insert (Transwell) to LTB4; format: cell-based, mouse
Description: Neutrophil chemotaxis experiments were conducted as described [Roth et al., J. Immunoi. Methods, 188:97-116 (1995)]. Briefly, purified human neutrophils were incubated with DMSO (0.3% v/v) or an inhibitor in accordance with the invention reconstituted in DMSO (0.3%) for 20 minutes at room temperature. Cells were added to bare filter inserts (Transwell™ 5 μm pore size; Corning Costar, Cambridge, Mass.), that were placed into wells containing chemoattractants or control medium of a Ultra low 24-well cluster plate, and incubated for 1 hour at 37° C. in a 5% CO2 humidified environment. The number of neutrophils that migrated into the bottom well was determined by FACScan (Becton Dickinson, San Jose, Calif.). Results were expressed as percent neutrophil migration relative to the control (medium without inhibitor).
A dose response curve was generated to determine the concentration of LTB4 necessary to support half-maximal migration across a bare filter insert. Maximal transmigration for neutrophils purified from mouse bone marrow occurred between 100 to 250 nM of LTB4. […] Tager et al., J Exp. Med., 192:439-46 (2000). Treatment of WT neutrophils with 2 μM inhibitor in accordance with the invention diminished migration in response to LTB4 (30 nM) by ˜30%, a value equivalent to that observed for PI3Kδ deficient cells.

cSrc = cSrc (Homo sapiens, UniProt P12931); settings: inhibitor 10 μM; reported by Sadhu et al.; cited from earlier work
ZAP-70 = ZAP-70 (Homo sapiens, UniProt P43403); test: Protein kinase/phosphatase panel: ZAP-70; format: biochemical; settings: inhibitor 10 μM; 100 μM ATP
TNFα-stimulated HUVECs = test: Neutrophil tethering to TNFα-stimulated HUVECs, parallel plate flow chamber; format: cell-based, human; settings: for reduction of neutrophil tethering to HUVECs pre-incubated with inhibitor: 2 μM, vs vehicle
Description: First, the effect of inhibiting PI3Kδ in endothelial cells was examined. Human umbilical vein endothelial cells (HUVECs) (3-4 passages; Cambrex Inc., East Rutherford, N.J.) grown on fibronectin-coated glass cover slips were pretreated with an inhibitor in accordance with the invention (2 μM) or vehicle control for 1 hour prior to being stimulated with TNFα (5 ng/ml, 4 h). Stimulation with TNFα induces expression of E-selectin by the endothelial cells. Peripheral blood neutrophils from healthy volunteers were isolated from whole blood by dextran sedimentation followed by density separation over Ficoll-Hypaque and hypotonic lysis. Approval was obtained from the Washington University Institutional Review Board for these studies. Informed consent was provided according to the Declaration of Helsinki. […] In additional experiments where leukocytes were pre-treated with an inhibitor of the invention as described above, the HUVECS were pre-incubated with mAb CL3 (50 μg/ml, 15 min) to block E-selectin binding. […] Endothelial cells therefore recruit leukocytes at least in part through selectins.

PKC-θ = PKC-θ (Homo sapiens, UniProt Q04759); test: Protein kinase/phosphatase panel: PKC-θ; format: biochemical; settings: inhibitor 10 μM; 100 μM ATP
[2] = test system: neutrophil accumulation in BAL fluid; test: LPS-induced acute lung injury model, BAL fluid; format: in vivo; settings: for reduction in the accumulation of neutrophils in BAL fluid: one hour prior to LPS challenge
Description: Lewis rats to be treated with an inhibitor in accordance with the invention or vehicle control (PEG400) were first challenged with LPS [Asti et al., Pulm. Pharmacol Ther., 13:61-69 (2000)]. Briefly, the trachea was exposed by standard surgical procedures and 100 μl saline solution or saline containing LPS (Escherichia Coli Serotype 0111:B4, Sigma) was instilled. Six hours following the challenge, rats were euthanized and the bronchoalveolar lavage (BAL) fluid was collected for cell differentials. Total white blood cell (WBC) and neutrophil counts were determined (Hemavet™ 850 FS cell counter). Cell populations were identified by morphological examination of smears prepared by cytocentrifugation.
(§1) Animals received a single oral dose of either a compound in accordance with the invention (25 mg/kg for mice and 20 or 40 mg/kg for rats) or vehicle (PEG-400). Blood samples were subsequently drawn at indicated time points and plasma concentration of the compound determined after liquid-liquid extraction by LC/MS. The lower quantification limit was 50 ng/ml. Plasma samples from control animals (vehicle alone) were used as the blank control.

[3] = Plasma concentration of the compound after oral administration; format: in vivo, mice; settings: when LTB4 was applied
Description: as §1

PKCα = PKCα (Homo sapiens, UniProt P17252); settings: inhibitor 10 μM; reported by Sadhu et al.; cited from earlier work
p38 MAPK = p38 MAPK (Homo sapiens, UniProt Q16539); settings: inhibitor 10 μM; reported by Sadhu et al.; cited from earlier work
PKBα (Akt 1) = PKBα (Akt 1) (Homo sapiens, UniProt P31749); settings: inhibitor 10 μM; reported by Sadhu et al.; cited from earlier work
PKBα (Akt 1), sequence (P31749 whole entry, species assumed): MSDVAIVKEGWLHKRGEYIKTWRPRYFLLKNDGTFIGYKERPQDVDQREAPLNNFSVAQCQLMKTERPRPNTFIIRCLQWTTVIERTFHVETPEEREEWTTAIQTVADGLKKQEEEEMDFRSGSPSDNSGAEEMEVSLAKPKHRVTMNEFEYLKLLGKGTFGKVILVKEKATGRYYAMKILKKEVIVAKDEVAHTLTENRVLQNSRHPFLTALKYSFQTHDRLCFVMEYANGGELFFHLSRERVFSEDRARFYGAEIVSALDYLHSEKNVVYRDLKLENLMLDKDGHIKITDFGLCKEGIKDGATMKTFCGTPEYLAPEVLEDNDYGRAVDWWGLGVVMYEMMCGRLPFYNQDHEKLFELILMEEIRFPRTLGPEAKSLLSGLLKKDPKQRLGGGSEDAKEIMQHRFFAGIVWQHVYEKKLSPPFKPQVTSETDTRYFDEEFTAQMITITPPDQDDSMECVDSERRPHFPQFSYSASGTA

p38 MAPK, sequence (Q16539 whole entry): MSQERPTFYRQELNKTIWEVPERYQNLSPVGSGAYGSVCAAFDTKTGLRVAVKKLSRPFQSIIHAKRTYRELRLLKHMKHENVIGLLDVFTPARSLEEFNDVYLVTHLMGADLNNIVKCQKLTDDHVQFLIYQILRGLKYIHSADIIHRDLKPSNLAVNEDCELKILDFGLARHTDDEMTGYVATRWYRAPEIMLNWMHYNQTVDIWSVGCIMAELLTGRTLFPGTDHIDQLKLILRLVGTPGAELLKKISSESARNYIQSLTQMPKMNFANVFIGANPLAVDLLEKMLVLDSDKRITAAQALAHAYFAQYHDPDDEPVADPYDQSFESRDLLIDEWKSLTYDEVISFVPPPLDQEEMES
ZAP-70, sequence (P43403 whole entry, species assumed): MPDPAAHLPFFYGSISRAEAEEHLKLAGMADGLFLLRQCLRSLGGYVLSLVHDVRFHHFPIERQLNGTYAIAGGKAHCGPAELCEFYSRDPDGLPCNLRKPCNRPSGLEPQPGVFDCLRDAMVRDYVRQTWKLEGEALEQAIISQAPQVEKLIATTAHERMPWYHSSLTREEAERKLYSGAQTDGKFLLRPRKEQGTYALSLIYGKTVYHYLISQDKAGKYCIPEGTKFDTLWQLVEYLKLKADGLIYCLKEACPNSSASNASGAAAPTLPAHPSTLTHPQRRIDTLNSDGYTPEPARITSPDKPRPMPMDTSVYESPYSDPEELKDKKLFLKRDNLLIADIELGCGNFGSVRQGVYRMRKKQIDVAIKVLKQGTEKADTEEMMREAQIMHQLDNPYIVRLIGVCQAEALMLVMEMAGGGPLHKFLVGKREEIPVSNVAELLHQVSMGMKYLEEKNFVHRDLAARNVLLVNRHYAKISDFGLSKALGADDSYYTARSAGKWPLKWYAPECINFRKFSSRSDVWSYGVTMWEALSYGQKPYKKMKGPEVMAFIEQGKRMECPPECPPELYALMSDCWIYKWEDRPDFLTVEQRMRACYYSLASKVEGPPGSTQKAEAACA
PKC-θ, sequence (Q04759 whole entry): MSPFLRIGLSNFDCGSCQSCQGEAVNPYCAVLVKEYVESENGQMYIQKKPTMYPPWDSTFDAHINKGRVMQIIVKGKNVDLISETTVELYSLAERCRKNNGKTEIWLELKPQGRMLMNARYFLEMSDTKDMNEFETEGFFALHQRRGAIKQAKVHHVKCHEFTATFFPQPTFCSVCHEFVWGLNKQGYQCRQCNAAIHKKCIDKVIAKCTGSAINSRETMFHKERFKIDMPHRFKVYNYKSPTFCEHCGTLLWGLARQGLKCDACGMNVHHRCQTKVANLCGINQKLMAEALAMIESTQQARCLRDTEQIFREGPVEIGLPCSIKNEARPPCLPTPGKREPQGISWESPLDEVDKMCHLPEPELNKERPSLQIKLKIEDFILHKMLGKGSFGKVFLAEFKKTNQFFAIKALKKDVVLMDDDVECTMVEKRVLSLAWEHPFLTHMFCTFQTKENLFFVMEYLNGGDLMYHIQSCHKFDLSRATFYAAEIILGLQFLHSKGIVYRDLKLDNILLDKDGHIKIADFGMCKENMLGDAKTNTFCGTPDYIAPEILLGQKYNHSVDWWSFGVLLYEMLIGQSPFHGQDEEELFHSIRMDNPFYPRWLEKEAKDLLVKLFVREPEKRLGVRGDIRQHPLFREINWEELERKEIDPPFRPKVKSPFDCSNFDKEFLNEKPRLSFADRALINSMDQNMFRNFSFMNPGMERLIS
cSrc, sequence (P12931 whole entry, species assumed): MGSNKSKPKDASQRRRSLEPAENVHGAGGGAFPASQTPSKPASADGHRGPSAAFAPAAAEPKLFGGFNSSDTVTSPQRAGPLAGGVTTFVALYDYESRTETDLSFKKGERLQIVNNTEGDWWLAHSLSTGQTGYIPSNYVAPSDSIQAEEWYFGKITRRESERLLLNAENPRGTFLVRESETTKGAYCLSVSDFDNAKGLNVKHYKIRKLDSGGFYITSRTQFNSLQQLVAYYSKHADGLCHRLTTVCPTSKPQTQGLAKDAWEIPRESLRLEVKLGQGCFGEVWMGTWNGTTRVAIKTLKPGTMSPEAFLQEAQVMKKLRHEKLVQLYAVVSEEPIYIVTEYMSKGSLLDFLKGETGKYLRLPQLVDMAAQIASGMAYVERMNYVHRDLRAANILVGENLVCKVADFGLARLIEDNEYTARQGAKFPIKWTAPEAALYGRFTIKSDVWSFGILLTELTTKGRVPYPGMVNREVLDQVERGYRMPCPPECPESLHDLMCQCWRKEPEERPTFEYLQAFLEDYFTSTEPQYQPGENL
P70S6K, sequence (P23443 whole entry): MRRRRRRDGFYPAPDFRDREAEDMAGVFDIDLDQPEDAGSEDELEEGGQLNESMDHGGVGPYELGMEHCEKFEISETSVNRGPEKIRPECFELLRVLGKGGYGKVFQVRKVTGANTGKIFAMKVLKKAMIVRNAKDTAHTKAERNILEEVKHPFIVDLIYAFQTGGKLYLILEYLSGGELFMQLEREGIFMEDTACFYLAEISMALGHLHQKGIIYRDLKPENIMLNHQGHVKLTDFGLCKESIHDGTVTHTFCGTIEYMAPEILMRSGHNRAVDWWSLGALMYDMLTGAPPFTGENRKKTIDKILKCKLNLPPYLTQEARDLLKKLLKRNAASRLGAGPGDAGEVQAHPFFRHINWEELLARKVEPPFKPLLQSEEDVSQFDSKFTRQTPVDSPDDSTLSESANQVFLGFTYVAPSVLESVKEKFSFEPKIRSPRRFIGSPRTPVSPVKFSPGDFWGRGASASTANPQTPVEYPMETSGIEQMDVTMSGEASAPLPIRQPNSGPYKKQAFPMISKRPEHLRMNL

For Cc1ccccc1-n1c(Cn2cnc3c(N)ncnc32)nc2cccc(C)c2c1=O, which “Activity (% of control) ± SD” value (P70S6K) is on record?
The value was 98.5 ± 0.7 % of control.

And the “Activity (% of control) ± SD” value [1]?
Its value is 98 ± 6.2 % of control.

And the “diminished migration in response to LTB4” value (neutrophils; 2 μM, LTB4 30 nM, WT neutrophils)?
Its value is roughly 30%.

What about the “chemotaxis of cells lacking PI3Kδ” value (neutrophils; identical concentration (2 μM), PI3Kδ deficient cells) of the same compound?
Its value is “no further effects on chemotaxis”.

What about the “Activity (% of control) ± SD” value (cSrc) of the same compound?
The value was “No inhibition*”.

And the “Activity (% of control) ± SD” value (ZAP-70)?
The value was 97.5 ± 13.4 % of control.

And the “reduction of neutrophil tethering to HUVECs pre-incubated with inhibitor” value (TNFα-stimulated HUVECs; wall shear rate 100 s^−1)?
The value was 28%.

What about the “reduction of neutrophil tethering to HUVECs pre-incubated with inhibitor” value (TNFα-stimulated HUVECs; wall shear rate 300 s^−1) of the same compound?
Its value is 40%.

What about the “neutrophil tethering after treatment of neutrophils (not HUVECs) with inhibitor” value (TNFα-stimulated HUVECs; identical concentration (2 μM), HUVEC pre-treated with only TNFα) of the same compound?
Its value is “did not reduce neutrophil tethering”.

And the “Activity (% of control) ± SD” value (PKC-θ)?
Its value is 97 ± 5.5 % of control.

And the “reduction in the accumulation of neutrophils in BAL fluid” value ([2]; 20 mg per kg oral)?
Its value is “approximately 60%”.

And the “reduction in the accumulation of neutrophils in BAL fluid” value ([2]; 40 mg per kg oral)?
The value was roughly 80%.

What about the “TNFα in BAL fluid” value ([2]; LPS-treated mice that received inhibitor) of the same compound?
Its value is “still detectable”.

And the “inhibitor concentration (mean plasma)” value [3]?
Its value is 12.8 ± 3.7 µM.

And the “Activity (% of control) ± SD” value (PKCα)?
The value was “No inhibition*”.

And the “Activity (% of control) ± SD” value (p38 MAPK)?
Its value is “No inhibition*”.

And the “Activity (% of control) ± SD” value (PKBα (Akt 1))?
Its value is “No inhibition*”.
